Measured values: publication PMC8391421, “Identification of Novel Positive Allosteric Modulators of Neurotrophin Receptors for the Treatment of Cognitive Dysfunction” (Cells, 2021)
pEC50: −log10 of the molar value.

Assays:
C57BL/6J mice = experiment: Passive avoidance task; format: in vivo, mouse
Experimental: The passive avoidance (PA) task is an associate learning paradigm that is based on Pavlovian fear-conditioning and instrumental conditioning and conducted as previously described in male C57BL/6J mice (n = 7–8/group) from Charles River Laboratories, Sulzfeld, Germany. Vehicle or ACD855 (1, 3 or 10 mg/kg), formulated in 20% DMSO in 0.1 M sodium phosphate buffer pH 8.0, was administered daily (Days 1–4) through s.c. injections (4 mL/kg body weight). ACD856 (0.1, 0.3, 1 or 3 mg/kg) was administered by a single s.c. dose on the training day (Day 4). ACD855, ACD856, ANA-12 (0.5 mg/kg, from Sigma Aldrich, Stockholm, Sweden), physostigmine (0.025 mg/kg, from Sigma Aldrich, Stockholm, Sweden), or vehicle was administered 60 min prior to training, except for when addressing the effects on consolidation, in which case, ACD856 was dosed 5 min after the training session on day 4. Moreover, on the training day (Day 4), scopolamine or the NMDA-antagonist MK-801 (both from Sigma Aldrich, Stockholm, Sweden) at 0.3 mg/kg or vehicle was administered once s.c. 30 min prior to training. No compound was administered on the test day (Day 5), except for when addressing effects on retrieval, in which case, ACD856 was dosed 30 min prior to testing on day 5. Retention latencies and time spent in the bright compartment were determined 24 h after training (Day 5).

Wistar rats = experiment: Novel object recognition; format: in vivo, rat; settings: 1 mg/kg
Experimental: The novel object recognition model was conducted by Suven Life Sciences Ltd. (Hyderabad, India) using male Wistar rats (n = 12/group). This study was performed in compliance with the requirements and in-house animal care and usage policy of the Institutional Animal Ethics Committee (IAEC). The experiment was conducted over a 5-day period. For the first 3 days, ACD855 or vehicle were administered to the animals. On Day 4, the rats were acclimatized to their respective arenas for 20 min and then returned to their home cages for the administration of ACD855 or vehicle (1 h post habituation phase). On Day 5, the rats were administered vehicle or ACD855 1 h prior to trial, donepezil (1 mg/kg) was injected 30 min prior to trial, and scopolamine (1 mg/kg) was injected 20 min prior to trial. 20 min after scopolamine administration, the rats were subjected to the familiarization phase. The experiment was performed as described by Lueptow. The discriminative index for the drug-treated groups was compared to that of the vehicle group by use of the Kruskal–Wallis test. The discriminative index is the ratio of time spent exploring the novel object divided by the sum of the time spent exploring the novel object and a familiar object in the choice trial.

TrkB = target: T1, TrkB (Homo sapiens, UniProt Q16620); experiment: TrkB PathHunter cell-based assay (U2OS-TrkB/p75)
T1 construct: host or cells: U2OS (human osteosarcoma), co-expressing p75 and SHC-1 fused to the enzyme acceptor
T1 sequence (Q16620 32-822): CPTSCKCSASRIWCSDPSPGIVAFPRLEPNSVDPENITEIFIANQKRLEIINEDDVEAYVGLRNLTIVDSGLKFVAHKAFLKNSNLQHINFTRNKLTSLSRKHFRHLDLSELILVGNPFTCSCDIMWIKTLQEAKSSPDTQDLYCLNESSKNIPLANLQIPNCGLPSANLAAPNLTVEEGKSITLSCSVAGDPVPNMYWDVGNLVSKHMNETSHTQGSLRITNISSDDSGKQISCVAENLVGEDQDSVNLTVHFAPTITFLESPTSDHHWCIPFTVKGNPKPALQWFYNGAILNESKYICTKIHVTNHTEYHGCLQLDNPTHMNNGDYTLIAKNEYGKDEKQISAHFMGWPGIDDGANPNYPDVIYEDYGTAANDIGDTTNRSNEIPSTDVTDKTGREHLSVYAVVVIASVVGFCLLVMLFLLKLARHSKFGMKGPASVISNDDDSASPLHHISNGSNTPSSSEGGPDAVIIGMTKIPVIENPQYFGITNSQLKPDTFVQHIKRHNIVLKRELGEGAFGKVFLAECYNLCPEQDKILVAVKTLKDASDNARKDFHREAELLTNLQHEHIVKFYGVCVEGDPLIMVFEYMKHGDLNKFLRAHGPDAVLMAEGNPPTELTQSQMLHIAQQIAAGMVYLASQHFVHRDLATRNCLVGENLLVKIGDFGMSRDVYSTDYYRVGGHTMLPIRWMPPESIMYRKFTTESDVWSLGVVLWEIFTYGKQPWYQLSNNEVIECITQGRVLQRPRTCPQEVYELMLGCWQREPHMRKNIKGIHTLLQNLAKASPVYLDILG
Experimental: U2OS cells were maintained subconfluent in EMEM supplemented with 10% FBS and penicillin/streptomycin/hygromycin and G418. One day prior to the experiment, 5000 cells of EMEM supplemented with 0.5% horse serum were seeded in each well of a 384-well white plate. The assay was performed as previously described. Briefly, the TrkA or TrkB cell-based PathHunter® assays use enzyme fragment complementation (EFC) technology for the complementation of two β-galactosidase (β-gal) fragments in order to study protein–protein interactions. Upon activation with ligand, TrkA or TrkB are phosphorylated on several tyrosine residues, including tyrosine 490, leading to an interaction with SHC-1. In the PathHunter® assays, the Trk-receptors are fused to an enzyme donor tag, and SHC-1 is fused to a larger part of β-gal called an enzyme acceptor. The interactions between the recombinant enzyme donor, i.e., the Trk-receptor, with an enzyme acceptor, i.e., SHC-1, leads to an active β-gal enzyme. The functional (complemented) β-gal will hydrolyze a substrate to generate a luminescence signal. The generated luminescence was read using an EnVision plate reader from PerkinElmer, Upplands Väsby, Sweden, or an ID5 plate reader from Molecular Devices, Berkshire, RG41 5TS UK. […] Min- and Max-control wells were included on each plate. A compound was considered a hit if the percent activation was more than 50% and if the value was two standard deviations higher than the mean value of all of the samples on the plate. The average activation of all of samples on 10 different 384-well plates was 31%. […] Due to the risk of adverse events with the systemic administration of TrkA agonists, the screen and the re-screen processes were designed to increase the likelihood of identifying the positive modulators of NGF-signaling rather than identifying TrkA agonists. Based on the results of the re-screen, in combination with the physical–chemical properties of the molecules, a collection of hits was used for the EC50 determinations.
Both Toltrazuril and Ponazuril are registered veterinary products prescribed for parasitic infections in animals. […] The cellular response to NGF or BDNF was measured using PathHunter® assays employing β-gal enzyme fragment complementation technology. The activation of Trk-receptors leads to an intracellular interaction between the Trk-receptor and SHC-1 and thereby to the complementation of β-gal, which will render in a functional enzyme. β-gal will hydrolyze a substrate to generate luminescence, which is proportional to the number of activated receptors. […]

For `Cc1cc(-n2c(=O)[nH]c(=O)n(C)c2=O)ccc1Oc1ccc(S(=O)(=O)C(F)(F)F)cc1` [ACD855, Toltrazuril-sulfone], the “effect on scopolamine-induced memory impairment (time spent in bright compartment)” value (C57BL/6J mice; 3 or 10 mg/kg s.c. once daily for four days, scopolamine 0.3 mg/kg) was “significantly attenuate”, the “effect of ANA-12 on compound's reversal of scopolamine-induced memory impairment” value (C57BL/6J mice; ANA-12 0.5 mg/kg s.c.) was “blocked by ANA-12” and the “effect on MK-801-induced memory impairment” value (C57BL/6J mice; MK-801 0.3 mg/kg) was “ameliorate”. The “effect of combined administration with physostigmine on scopolamine-induced memory impairment” value (C57BL/6J mice; low dose of compound plus physostigmine 0.025 mg/kg) was “significantly reverse”, the “effect of low dose alone on scopolamine-induced memory impairment” value (C57BL/6J mice; low doses given by themselves, physostigmine 0.025 mg/kg) was “no significant effect” and the “pro-cognitive effects and other behavioral parameters in naive animals” value (C57BL/6J mice; naïve young healthy animals) was “none of the two compounds had any pro-cognitive effects”. For the same molecule, the “time with novel object vs familiar object after scopolamine” value (Wistar rats) was “spent significantly more time with the novel object”, the pEC50 (TrkB; PathHunter cell-based assay) was 5.49 and the “TrkB Effect (efficacy)” value (TrkB; PathHunter cell-based assay) was 319%. The “activation of TrkB-receptor by compound itself” value (TrkB; without ligand, 100% = 30 ng/mL ligand) was 45%.
